Laboratory results taken from the NIST ThermoML archive (doi:10.1021/acs.jced.7b00578).
Several values for one entry are separate records, joined by “and”; a condition that tells them apart may be missing. Equal values may be shown once. Numbers after ± are expanded uncertainties.

Tests used:
[1] = molar heat capacity at constant pressure; conditions: 101.33 kPa, Liquid, Extra sensitive DSC
[2] = Liquid, Closed cell (Static) method

CC1COC(=O)O1 (stereo unspecified) [4-methyl-1,3-dioxolan-2-one]
molar heat capacity at constant pressure ([1]; 262.22 K): 162.94 ± 6.3 J/K/mol | molar heat capacity at constant pressure ([1]; 265 K): 163.34 ± 6.3 J/K/mol | molar heat capacity at constant pressure ([1]; 270 K): 164.16 ± 6.4 J/K/mol | molar heat capacity at constant pressure ([1]; 275 K): 164.98 ± 6.4 J/K/mol | molar heat capacity at constant pressure ([1]; 280 K): 165.79 ± 6.4 J/K/mol | molar heat capacity at constant pressure ([1]; 285 K): 166.61 ± 6.5 J/K/mol | molar heat capacity at constant pressure ([1]; 290 K): 167.53 ± 6.5 J/K/mol | molar heat capacity at constant pressure ([1]; 295 K): 168.45 ± 6.5 J/K/mol | molar heat capacity at constant pressure ([1]; 300 K): 169.37 ± 6.6 J/K/mol | molar heat capacity at constant pressure ([1]; 305 K): 170.29 ± 6.6 J/K/mol | molar heat capacity at constant pressure ([1]; 310 K): 171.2 ± 6.6 J/K/mol | molar heat capacity at constant pressure ([1]; 315 K): 172.23 ± 6.7 J/K/mol | molar heat capacity at constant pressure ([1]; 320 K): 173.14 ± 6.7 J/K/mol | molar heat capacity at constant pressure ([1]; 325 K): 174.17 ± 6.8 J/K/mol | molar heat capacity at constant pressure ([1]; 330 K): 175.19 ± 6.8 J/K/mol | molar heat capacity at constant pressure ([1]; 335 K): 176.11 ± 6.8 J/K/mol | molar heat capacity at constant pressure ([1]; 340 K): 177.13 ± 6.9 J/K/mol | molar heat capacity at constant pressure ([1]; 345 K): 178.15 ± 6.9 J/K/mol | molar heat capacity at constant pressure ([1]; 350 K): 179.17 ± 6.9 J/K/mol | molar heat capacity at constant pressure ([1]; 355 K): 180.09 ± 7 J/K/mol | molar heat capacity at constant pressure ([1]; 357.99 K): 180.7 ± 7 J/K/mol | vapor or sublimation pressure ([2]; 278.19 K): 0.00132 ± 0.00013 kPa | vapor or sublimation pressure ([2]; 278.37 K): 0.00133 ± 0.00013 kPa | vapor or sublimation pressure ([2]; 278.39 K): 0.00133 ± 0.00013 kPa | vapor or sublimation pressure ([2]; 283.31 K): 0.00214 ± 0.00015 kPa | vapor or sublimation pressure ([2]; 283.32 K): 0.00214 ± 0.00015 kPa | vapor or sublimation pressure ([2]; 288.19 K): 0.00332 ± 0.00017 kPa | vapor or sublimation pressure ([2]; 288.2 K): 0.00333 ± 0.00017 kPa | vapor or sublimation pressure ([2]; 288.22 K): 0.00332 ± 0.00017 kPa | vapor or sublimation pressure ([2]; 293.12 K): 0.00511 ± 0.00022 kPa | vapor or sublimation pressure ([2]; 293.14 K): 0.00512 ± 0.00022 kPa | vapor or sublimation pressure ([2]; 293.15 K): 0.00514 ± 0.00023 kPa and 0.00511 ± 0.00022 kPa | vapor or sublimation pressure ([2]; 298.1 K): 0.00778 ± 0.00032 kPa | vapor or sublimation pressure ([2]; 298.11 K): 0.00778 ± 0.00032 kPa | vapor or sublimation pressure ([2]; 298.12 K): 0.00777 ± 0.00032 kPa | vapor or sublimation pressure ([2]; 303.01 K): 0.01158 ± 0.00046 kPa and 0.01155 ± 0.00046 kPa | vapor or sublimation pressure ([2]; 303.03 K): 0.01156 ± 0.00046 kPa | vapor or sublimation pressure ([2]; 307.94 K): 0.01701 ± 0.00058 kPa and 0.01698 ± 0.00058 kPa | vapor or sublimation pressure ([2]; 307.95 K): 0.01694 ± 0.00057 kPa and 0.01696 ± 0.00057 kPa | vapor or sublimation pressure ([2]; 312.97 K): 0.0247 ± 0.00069 kPa and 0.02472 ± 0.00069 kPa | vapor or sublimation pressure ([2]; 312.98 K): 0.02474 ± 0.00069 kPa | vapor or sublimation pressure ([2]; 312.99 K): 0.02479 ± 0.0007 kPa | vapor or sublimation pressure ([2]; 317.91 K): 0.03529 ± 0.00086 kPa | vapor or sublimation pressure ([2]; 317.92 K): 0.0353 ± 0.00086 kPa and 0.03533 ± 0.00086 kPa and 0.03536 ± 0.00086 kPa | vapor or sublimation pressure ([2]; 322.9 K): 0.04993 ± 0.0011 kPa | vapor or sublimation pressure ([2]; 322.92 K): 0.04996 ± 0.0011 kPa and 0.05002 ± 0.0011 kPa and 0.05 ± 0.0011 kPa | vapor or sublimation pressure ([2]; 327.8 K): 0.06936 ± 0.0014 kPa | vapor or sublimation pressure ([2]; 327.81 K): 0.06935 ± 0.0014 kPa and 0.06932 ± 0.0014 kPa and 0.06938 ± 0.0014 kPa | vapor or sublimation pressure ([2]; 332.89 K): 0.09634 ± 0.0019 kPa and 0.09635 ± 0.0019 kPa | vapor or sublimation pressure ([2]; 332.91 K): 0.09643 ± 0.0019 kPa | vapor or sublimation pressure ([2]; 332.92 K): 0.09645 ± 0.0019 kPa | vapor or sublimation pressure ([2]; 337.83 K): 0.1311 ± 0.0023 kPa | vapor or sublimation pressure ([2]; 337.84 K): 0.1311 ± 0.0023 kPa and 0.1312 ± 0.0023 kPa | vapor or sublimation pressure ([2]; 337.85 K): 0.1312 ± 0.0023 kPa | vapor or sublimation pressure ([2]; 342.82 K): 0.177 ± 0.0028 kPa | vapor or sublimation pressure ([2]; 342.83 K): 0.1772 ± 0.0028 kPa | vapor or sublimation pressure ([2]; 342.84 K): 0.1773 ± 0.0028 kPa and 0.1772 ± 0.0028 kPa | vapor or sublimation pressure ([2]; 347.69 K): 0.2353 ± 0.0035 kPa | vapor or sublimation pressure ([2]; 347.7 K): 0.2354 ± 0.0035 kPa | vapor or sublimation pressure ([2]; 352.55 K): 0.3096 ± 0.0044 kPa | vapor or sublimation pressure ([2]; 352.58 K): 0.3102 ± 0.0044 kPa | vapor or sublimation pressure ([2]; 352.59 K): 0.3103 ± 0.0044 kPa | vapor or sublimation pressure ([2]; 357.59 K): 0.4078 ± 0.0056 kPa | vapor or sublimation pressure ([2]; 357.6 K): 0.4079 ± 0.0056 kPa | vapor or sublimation pressure ([2]; 362.51 K): 0.529 ± 0.0071 kPa | vapor or sublimation pressure ([2]; 362.53 K): 0.5293 ± 0.0071 kPa and 0.5294 ± 0.0071 kPa and 0.5295 ± 0.0071 kPa
